Eleven compounds from ChEMBL document CHEMBL1201862, “PubChem BioAssay data set” (2004) can be followed below.

Holding throughout (assay): NCI tumour cell line growth inhibition, 48 h
The subject of assay [1] is HCT-116.
Assay [2] concerns TK-10.
Assay [3] concerns SNB-75.
The subject of assay [4] is CCRF-CEM.
Assay [5] concerns PC-3.
The test system of assay [6] is HT-29.
In assay [7] the test system is HCT-15.
In assay [8] the test system is IGROV-1.
Assay [9] concerns NCI-H23.
The test system of assay [10] is Hs-578T.
Assay [11] has as its system SR.
The subject of assay [12] is HCC 2998.
Assay [13] concerns A549.
Assay [14] relates to COLO 205.
The test system of assay [15] is T47D.
The subject of assay [16] is MOLT-4.
Assay [17] relates to MCF7.
Assay [18] concerns UO-31.
In assay [19] the test system is HL-60.
In assay [20] the test system is Malme-3M.

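Following 48 hours of exposure in 96-well plates, responses at five concentrations were used to interpolate endpoints linearly. Here, GI50 denotes the concentration required for 50% inhibition of growth.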 Activity calls are given as the source filed them. Cut-off read from the data, not from the text of the source: active = GI50 up to about 1.1 µM and inactive = higher.

For `COc1cc([C@@H]2c3cc4c(cc3[C@@H](c3c(O)cc(O)c5c3O[C@H](c3ccc(O)c(O)c3)[C@H](OC(=O)c3cc(O)c(O)c(O)c3)C5)[C@H]3COC(=O)[C@H]23)OCO4)cc(OC)c1OC`, the GI50 in [1] is 5 µM (inactive); in assay [2], > 100 µM (inactive); in assay [3], 3.47 µM (inactive); in assay [4], 2.44 µM (inactive); in [5], 5.28 µM (inactive); in assay [6] it was 17.6 µM (inactive). Moreover, the GI50 is 18.7 µM in [7]; 27 µM (inactive) in assay [8]; 38.5 µM (inactive) in assay [9]; 4.07 µM (inactive) in assay [10]; 2.69 µM (inactive) in assay [11]; 20.2 µM (inactive) in assay [12]. In addition, the GI50 is 11.9 µM (inactive) in assay [13]; 25.9 µM (inactive) in assay [14]; > 100 µM (inactive) in assay [15]; 7.74 µM (inactive) in assay [16]; 3.75 µM (inactive) in assay [17].

Turning to `COc1cc(-c2c3c([nH]c(=O)c2C#N)-c2cc([N+](=O)[O-])ccc2CCC3)cc(OC)c1OC`, the GI50 in [1] was 18.8 µM (inactive); in assay [2], 34.8 µM (inactive); in assay [18], 19 µM (inactive); in assay [3] it was 21.7 µM (inactive); in assay [4] it was 21.7 µM (inactive); in assay [5], 20.2 µM (inactive). In addition, the GI50 in assay [6] is 37.5 µM (inactive); in [7] it was 26.4 µM; in [8], 33.1 µM (inactive); in assay [9], 17.4 µM (inactive); in [19] it was 21.4 µM (inactive); in assay [10], 13.3 µM (inactive). The GI50 was 17.2 µM (inactive) in assay [12]; 23.8 µM (inactive) in assay [13]; 22 µM (inactive) in assay [14]; 14.1 µM (inactive) in assay [15]; 16 µM (inactive) in assay [16]; 22.8 µM (inactive) in assay [20]. The GI50 in [17] was 17.4 µM (inactive).

For `C=C1C(=O)OC2/C=C(\C)C(O)CC(O)C(C)(O)CC(OC(=O)/C(C)=C/C)C12` (configuration not stated), the GI50 in assay [1] is 32.9 µM (inactive); in assay [2] it was > 67.5 µM (inactive); in [18] it was 44.6 µM (inactive); in assay [3] it was 38.2 µM (inactive); in assay [4], 34.3 µM (inactive); in assay [5], 46.1 µM (inactive). Besides, the GI50 in [6] was 39.6 µM (inactive); in [7] it was 28.4 µM; in assay [8], 31.7 µM (inactive); in assay [9] it was 46.9 µM (inactive); in [19], 39.9 µM (inactive); in [10] it was 44.2 µM (inactive). Also, the GI50 in [12] is 34.9 µM (inactive); in assay [13] it was 53.6 µM (inactive); in [14], 57.8 µM (inactive); in [15], 65.5 µM (inactive); in assay [16], 1.34 µM (inactive); in [20], 50 µM (inactive). Also, the GI50 in assay [17] is 56.8 µM (inactive).

Regarding `C/C(=C\CO)CC[C@@H]1[C@@]2(C)CCCC(C)(C)[C@@H]2CC[C@@]1(C)O`, the GI50 was 22 µM (inactive) in assay [1]; 17.5 µM (inactive) in assay [2]; 23.4 µM (inactive) in assay [18]; 17.7 µM (inactive) in assay [3]; 20.4 µM (inactive) in assay [4]; 16.4 µM (inactive) in [5]. Besides, the GI50 in assay [6] was 21.3 µM (inactive); in assay [7], 17.3 µM; in [8], 17 µM (inactive); in assay [9] it was 20.5 µM (inactive); in assay [19] it was 20.5 µM (inactive); in assay [10], 24 µM (inactive). Further, the GI50 is 16 µM (inactive) in assay [12]; 29.6 µM (inactive) in [13]; 17.7 µM (inactive) in [14]; 18.2 µM (inactive) in assay [15]; 51.8 µM (inactive) in assay [16]; 19.7 µM (inactive) in assay [20]. The GI50 in assay [17] is 17.1 µM (inactive).

As for `CSc1[nH]cnc1C(N)=S`, the GI50 in assay [1], in assay [2], in assay [18], in assay [3], in [5] and in [6] was > 100 µM (inactive) each time. For the same compound, the GI50 in [8], in [9], in assay [19], in assay [10], in assay [13] and in assay [14] was > 100 µM (inactive) each time. Also, the GI50 in [15], in assay [16], in [20] and in [17] was > 100 µM (inactive) in each case.

Regarding `COc1ccc(-c2cc3c(nn2)-c2ccccc2C3=O)cc1`, the GI50 in assay [1] is 7.71 µM (inactive); in assay [2], > 10 µM (inactive); in assay [18] it was > 10 µM (inactive); in assay [3] it was 0.845 µM (active); in assay [4], 6.38 µM (inactive); in [5] it was > 10 µM (inactive). For the same compound, the GI50 in assay [6] was > 10 µM (inactive); in [7], greater than 10 µM; in assay [8] it was > 10 µM (inactive); in [9] it was > 10 µM (inactive); in assay [19], > 10 µM (inactive); in assay [10], > 10 µM (inactive). The GI50 in assay [12] is > 10 µM (inactive); in assay [13], > 10 µM (inactive); in assay [14], > 10 µM (inactive); in [15] it was > 10 µM (inactive); in assay [20], > 10 µM (inactive); in [17] it was 8.93 µM (inactive).

Take `CCOc1cc(/C=N\N(C)C)cc(/C=N\N(C)C)c1O`: the GI50 in [1] was 90.6 µM (inactive); in assay [2], 69.2 µM (inactive); in [18] it was 29.4 µM (inactive); in assay [3] it was 28.8 µM (inactive); in assay [4], 44.7 µM (inactive); in assay [5], 33.2 µM (inactive). Further, the GI50 in assay [6] was 42.3 µM (inactive); in [7] it was 35.2 µM; in [9] it was > 100 µM (inactive); in assay [19], 52.5 µM (inactive); in [10], 29.7 µM (inactive); in [11], 38 µM (inactive). For the same compound, the GI50 in assay [12] was 91.2 µM (inactive); in assay [13], > 100 µM (inactive); in [14], 18.7 µM (inactive); in assay [15], 11.7 µM (inactive); in assay [16] it was 61 µM (inactive); in assay [20], 32.4 µM (inactive).

With `COc1ccc(-c2oc3ccc(C)cc3c(=O)c2O)cc1`, the GI50 in assay [1] is 52 µM (inactive); in assay [2], 32.1 µM (inactive); in [18], > 100 µM (inactive); in [3], 76.7 µM (inactive); in [4], > 100 µM (inactive); in assay [5], > 100 µM (inactive). The GI50 is > 100 µM (inactive) in assay [6]; 24.5 µM in assay [7]; > 100 µM (inactive) in assay [8]; > 100 µM (inactive) in [9]; 58.7 µM (inactive) in [19]; > 100 µM (inactive) in assay [10]. Besides, the GI50 in assay [12] is > 100 µM (inactive); in assay [13], > 100 µM (inactive); in assay [14], > 100 µM (inactive); in assay [15], > 100 µM (inactive); in [16], 58.6 µM (inactive); in assay [20], > 100 µM (inactive). Also, in assay [17], the GI50 is > 100 µM (inactive).

In the case of `O=C1C=C(O)C(=O)c2c(O)ccc(O)c21`, the GI50 in assay [1], in [2], in assay [18], in [3], in [4] and in [5] was > 100 µM (inactive) in each case. Besides, the GI50 in [6] is 51.9 µM (inactive); in assay [7], greater than 100 µM; in [8], > 100 µM (inactive); in assay [9], > 100 µM (inactive); in assay [19] it was 58.5 µM (inactive); in assay [10] it was > 100 µM (inactive). Besides, the GI50 in assay [12] was > 100 µM (inactive); in [13], > 100 µM (inactive); in assay [14] it was 92 µM (inactive); in [15], > 100 µM (inactive); in assay [16], > 100 µM (inactive); in [20] it was 88.5 µM (inactive). In assay [17], the GI50 was > 100 µM (inactive).

In the case of `NC(=O)c1sc2nc3ccccc3n2c1N`, the GI50 is 74.1 µM (inactive) in [1]; 42.7 µM (inactive) in assay [2]; > 100 µM (inactive) in assay [18]; 29.4 µM (inactive) in assay [3]; > 100 µM (inactive) in assay [4]; > 100 µM (inactive) in assay [5]. For the same compound, the GI50 in [6] was > 100 µM (inactive); in assay [7], greater than 100 µM; in [8] it was 51.5 µM (inactive); in assay [9] it was 17.4 µM (inactive); in assay [19], > 100 µM (inactive); in assay [10], 46 µM (inactive). Besides, the GI50 is 86.7 µM (inactive) in assay [12]; > 100 µM (inactive) in assay [13]; > 100 µM (inactive) in [14]; > 100 µM (inactive) in assay [15]; > 100 µM (inactive) in assay [16]; > 100 µM (inactive) in assay [20]. In addition, in assay [17], the GI50 was > 100 µM (inactive).

`Cc1cc2c(cc1Cl)SC(NNC(=O)c1ccco1)=NS2(=O)=O`: the GI50 in assay [1], in [2], in [18], in [3], in assay [4] and in assay [5] was > 10 µM (inactive) in each case. Besides, the GI50 is > 10 µM (inactive) in assay [6]; greater than 10 µM in assay [7]; > 10 µM (inactive) in assay [8]; > 10 µM (inactive) in [9]; > 10 µM (inactive) in [19]; > 10 µM (inactive) in assay [10]. In addition, the GI50 in assay [12], in [13], in assay [14], in assay [15], in assay [16] and in assay [20] was > 10 µM (inactive) each time. The GI50 in assay [17] is > 10 µM (inactive).
